Laboratory results published in publication PMC12010006, “Subnanomolar MAS-related G protein-coupled receptor-X2/B2 antagonists with efficacy in human mast cells and disease models” (Signal Transduction and Targeted Therapy, 2025).

Test system: IgE-mediated degranulation
Assay: IgE-mediated degranulation (DNP-BSA) of RBL-MRGPRX2 cells sensitized with DNP-specific IgE
Assay type: cell-based, rat
Settings: 0.1 and 0.3 µM; DNP-BSA 10 and 30 ng/mL
Experimental: Having a competitive MRGPRX2 antagonist with subnanomolar potency in hand, we next studied its effects on MCs. Activation of MRGPRX2, which is highly expressed in skin MCs, results in degranulation and histamine release.[19] We therefore investigated whether PSB-172656 inhibits MRGPRX2-mediated MC activation utilizing the rat MC line RBL-2H3 recombinantly expressing the human MRGPRX2 (designated RBL-MRGPRX2). These cells were treated with two different concentrations of PSB-172656 (100 nM and 300 nM), and then exposed to different MRGPRX2 agonists, namely C48/80 (0.3 µg/mL), SP (0.3 µM), and PAMP-12 (0.1 µM), respectively. Degranulation of the cells was assayed by β-hexosaminidase release measurements.
Fig. 5 PSB-172656 blocks MRGPRX2-induced mast cell degranulation without affecting IgE-mediated responses. a RBL-MRGPRX2 cells were incubated with control (vehicle) or preincubated with PSB-172656 (100 or 300 nM), followed by stimulation with C48/80 (0.3 µg/mL), substance P (SP; 0.3 µM), or PAMP-12 (0.1 µM), and β-hexosaminidase release was measured. RBL-MRGPRX2 cells were sensitized with monoclonal anti-dinitrophenyl antibody (DNP-specific IgE), and degranulation induced by 2,4-dinitrophenylated bovine serum albumin (DNP-BSA, 10 and 30 ng/mL) was measured without or after preincubation with PSB-172656 (0.1 and 0.3 µM). […] Data are expressed as means ± SEM of 3 biological replicates. […]

CCc1c(C(C)C)[nH]c2nc3cc(F)c(F)cc3n2c1=O [Compound 24, 3-ethyl-7,8-difluoro-2-isopropylbenzo[4,5]imidazo [1,2-a] pyrimidin-4(1H)-one]
effect on IgE-mediated degranulation induced by DNP-BSA: did not inhibit
